Where a chain is given by its changes, count along the chain named. Read-outs that look alike come from different tables or passages of the source.
Tests used:
P291L AhR = target: T1, P291L AhR (Mus musculus, UniProt P30561, P291L); test: [3H]TCDD competitive ligand binding, P291L mutant AhR; details: for change of relative binding affinity versus wild-type AhR: P291L substitution, in words
T1 construct: made in house; host or cells: in vitro, Promega TNT Quick rabbit reticulocyte lysate
T1 sequence (P30561 10-848 P291L): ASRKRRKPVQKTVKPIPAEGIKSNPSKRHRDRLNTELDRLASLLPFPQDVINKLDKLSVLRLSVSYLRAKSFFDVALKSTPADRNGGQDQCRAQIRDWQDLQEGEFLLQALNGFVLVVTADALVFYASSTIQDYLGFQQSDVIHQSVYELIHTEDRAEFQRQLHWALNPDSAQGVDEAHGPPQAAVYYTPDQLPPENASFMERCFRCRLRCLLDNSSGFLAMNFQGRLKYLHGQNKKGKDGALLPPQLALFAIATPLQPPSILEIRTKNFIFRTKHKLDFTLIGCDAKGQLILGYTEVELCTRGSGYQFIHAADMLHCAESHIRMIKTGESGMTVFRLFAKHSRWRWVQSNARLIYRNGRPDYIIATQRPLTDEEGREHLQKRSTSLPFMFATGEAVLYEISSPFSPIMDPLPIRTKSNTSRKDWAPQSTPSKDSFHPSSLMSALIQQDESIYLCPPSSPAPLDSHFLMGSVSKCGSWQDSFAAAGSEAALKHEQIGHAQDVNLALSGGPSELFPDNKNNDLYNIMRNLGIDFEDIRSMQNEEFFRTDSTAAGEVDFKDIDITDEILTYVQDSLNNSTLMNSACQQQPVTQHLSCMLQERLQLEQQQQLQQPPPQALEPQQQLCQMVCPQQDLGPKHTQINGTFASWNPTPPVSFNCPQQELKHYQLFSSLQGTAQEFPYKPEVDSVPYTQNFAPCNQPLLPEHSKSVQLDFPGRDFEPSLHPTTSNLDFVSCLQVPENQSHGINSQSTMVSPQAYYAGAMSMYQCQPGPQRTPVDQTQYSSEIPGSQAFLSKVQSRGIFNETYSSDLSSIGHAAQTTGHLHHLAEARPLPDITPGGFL
Procedure: (§1) The mouse AhR (mAhR) and ARNT (mARNT) expression plasmids, mβAhR/pcDNA3 and mβArnt/pcDNA3, have been previously described. Point mutations of mβAhR/pcDNA3 were carried out using the QuikChange Lightning Mutagenesis Kit (Agilent Technologies) and all constructs were verified by sequencing.
(§2) [^3H]TCDD specific binding to wild-type or mutant mAhRs synthesized in vitro using the Promega TNT Quick coupled transcription/translation rabbit reticulocyte lysate kit (Madison, WI) was carried out as previously described. [^3H]TCDD specific binding was determined by subtracting the amount of [^3H]TCDD bound to unprogrammed lysate (nonspecific binding) from the total amount of [^3H]TCDD binding to lysate containing in vitro expressed AhR. The amount of [^3H]TCDD specific binding remaining in the presence of the indicated competitor chemical was expressed as a percent of the total [^3H]TCDD specific binding. The relative binding affinity (IC50) of each chemical was determined from concentration-dependent competitive inhibition curves obtained using [^3H]TCDD and increasing concentrations of each test chemical and the mean IC50 value was determined using three-parameter non-linear regression.

H331A mutant AhR = target: T2, H331A mutant AhR (Mus musculus, UniProt P30561, H331A); test: [3H]TCDD competitive ligand binding, H331A mutant AhR
T2 construct: made in house; host or cells: in vitro, Promega TNT Quick rabbit reticulocyte lysate
T2 sequence (P30561 10-848 H331A): T1 sequence (P30561 10-848 P291L) with L282P, H322A
Procedure: as §1, §2

[1] = system: zebrafish AhR1a (zfAhR1a); details: cited from earlier work
Q377A mutant AhR = system: Q377A mutant AhR; set-up: method as in PMID 17223691; details: mutation of Q377 to alanine; cited from earlier work
[2] = Table S6, AhR mutant P291L, read-out: IC50

Clc1cc2oc3cc(Cl)c(Cl)cc3c2cc1Cl [TCDF, 2,3,7,8-tetrachlorodibenzofuran]
IC50 (P291L AhR; P291L AhR, read-out: relative affinity (IC50)): 0.04 nM
change of relative binding affinity versus wild-type AhR (P291L AhR): dramatically enhanced
IC50 (P291L AhR; [2]): 0.0435 nM

c1ccc2c(c1)cc1ccc3cccc4ccc2c1c34 [BaP, Benzo(a)pyrene]
change of relative binding affinity versus wild-type AhR (P291L AhR): not statistically significant
IC50 (P291L AhR; [2]): 604 nM

Cc1ccc2cc3c(ccc4ccccc43)c3c2c1CC3 [3MC, 3-methylcholanthrene]
change of relative binding affinity versus wild-type AhR (H331A mutant AhR; H331A mutation, in words): dramatically increased
IC50 (H331A mutant AhR; Table S6, AhR mutant H331A): 0.141 nM

Clc1cc2c(cc1Cl)Oc1cc(Cl)c(Cl)cc1O2 [TCDD, 2,3,7,8-tetrachlorodibenzo-p-dioxin]
ligand binding to zfAhR1a [1]: unable to bind
TCDD specific binding (Q377A mutant AhR): abolish

Source: article PMC6650409, “Modeling the binding of diverse ligands within the Ah receptor ligand binding domain” (Scientific Reports, 2019)
